Test results: ChEMBL document CHEMBL1697781, “Assessment of the health effects of chemicals in humans: II. Construction of an adverse effects database for QSAR modeling” (Curr Drug Discov Technol, 2004)

What was measured:
Settings in all cases: human; call rule not given here
Hepatotoxicity [1] = test: FDA HLAED, serum glutamic pyruvic transaminase (SGPT) increase
Hepatotoxicity [2] = test: FDA HLAED, serum glutamic oxaloacetic transaminase (SGOT) increase
Hepatotoxicity [3] = test: FDA HLAED, lactate dehydrogenase (LDH) increase
Hepatotoxicity [4] = test: FDA HLAED, gamma-glutamyl transferase (GGT) increase
Hepatotoxicity [5] = test: FDA HLAED, liver enzyme composite activity
Hepatotoxicity [6] = test: FDA HLAED, alkaline phosphatase increase
Throughout, for GGT Increase - Index Value: reference of the scale not given here.
Throughout, for LDH Increase - Index Value: reference of the scale not given here.

Row | Structure (SMILES) | SGPT Increase - Activity Score (Hepatotoxicity [1]) | SGPT Increase - Index Value (Hepatotoxicity [1]) | SGPT Increase - Number of Reports (Hepatotoxicity [1]) | SGOT Increase - Activity Score (Hepatotoxicity [2]) | SGOT Increase - Index Value (Hepatotoxicity [2]) | SGOT Increase - Number of Reports (Hepatotoxicity [2]) | LDH Increase - Activity Score (Hepatotoxicity [3]) | LDH Increase - Index Value (Hepatotoxicity [3]) | LDH Increase - Number of Reports (Hepatotoxicity [3]) | GGT Increase - Activity Score (Hepatotoxicity [4]) | GGT Increase - Index Value (Hepatotoxicity [4]) | GGT Increase - Number of Reports (Hepatotoxicity [4]) | Composite Activity - Active (Hepatotoxicity [5]) | Composite Activity - Marginal (Hepatotoxicity [5]) | Composite Activity - Score (Hepatotoxicity [5]) | Alkaline Phosphatase Increase - Activity Score (Hepatotoxicity [6]) | Alkaline Phosphatase Increase - Index Value (Hepatotoxicity [6]) | Alkaline Phosphatase Increase - Number of Reports (Hepatotoxicity [6]) | also measured
1 | CCC(=O)O[C@@H](O[P@](=O)(CCCCc1ccccc1)CC(=O)N1C[C@H](C2CCCCC2)C[C@H]1C(=O)O)C(C)C [FOSINOPRIL] | Inactive | 1.5 | >= 4 | Inactive | 1.5 | >= 4 | Inactive | 0.6 | < 4 | Inactive | 0.6 | < 4 | 0 | 0 | Inactive | Inactive | 0.3 | < 4 | –
2 | CC(=O)N(CC(O)CN(C(C)=O)c1c(I)c(C(=O)NCC(O)CO)c(I)c(C(=O)NCC(O)CO)c1I)c1c(I)c(C(=O)NCC(O)CO)c(I)c(C(=O)NCC(O)CO)c1I (stereo unspecified) [IODIXANOL] | Inactive | 0 | < 4 | Inactive | 0 | < 4 | Inactive | 0 | < 4 | Inactive | 0 | < 4 | 0 | 0 | Inactive | Inactive | 0 | < 4 | –
3 | COc1cc(C(=O)NS(=O)(=O)c2ccccc2C)ccc1Cc1cn(C)c2ccc(NC(=O)OC3CCCC3)cc12 [ZAFIRLUKAST] | Active | 9.5 | >= 4 | Active | 10.1 | >= 4 | Marginally Active | 3.7 | >= 4 | Inactive | 0.5 | < 4 | 2 | 1 | Active | Inactive | 2.6 | >= 4 | –
4 | CCn1cc(C(=O)O)c(=O)c2cc(F)c(N3CCNCC3)nc21 [ENOXACIN] | Inactive | 0 | < 4 | Inactive | 0 | < 4 | Inactive | 0 | < 4 | Inactive | 0 | < 4 | 0 | 0 | Inactive | Inactive | 0 | < 4 | –
5 | CC[N+](C)(C)Cc1ccccc1Br.Cc1ccc(S(=O)(=O)[O-])cc1 [BRETYLIUM TOSYLATE] | Inactive | 0 | < 4 | Inactive | 0 | < 4 | Inactive | 0 | < 4 | Inactive | 0 | < 4 | 0 | 0 | Inactive | Inactive | 0 | < 4 | –
6 | Nc1ccn([C@H]2CC[C@@H](CO)O2)c(=O)n1 [ZALCITABINE] | Inactive | 2.9 | < 4 | Active | 5.7 | >= 4 | Inactive | 1.4 | < 4 | Inactive | 1.4 | < 4 | – | – | – | Inactive | 2.9 | < 4 | Composite Activity - Active (Hepatotoxicity [5]; Liver): 1; Composite Activity - Marginal (Hepatotoxicity [5]; Liver): 0; Composite Activity - Score (Hepatotoxicity [5]; Liver): Inactive
7 | Cc1cc2c(s1)Nc1ccccc1N=C2N1CCN(C)CC1 [OLANZAPINE] | Active | 15.5 | >= 4 | Active | 16.5 | >= 4 | Inactive | 2.1 | >= 4 | Active | 9.1 | >= 4 | 3 | 1 | Active | Marginally Active | 3.7 | >= 4 | –
8 | C=C1c2c(Cl)ccc(O)c2C(=O)C2=C(O)[C@]3(O)C(=O)C(C(N)=O)=C(O)[C@@H](N(C)C)[C@@H]3[C@@H](O)[C@H]12 [MECLOCYCLINE] | Inactive | 0 | < 4 | Inactive | 0 | < 4 | Inactive | 0 | < 4 | Inactive | 0 | < 4 | 0 | 0 | Inactive | Inactive | 0 | < 4 | –
9 | CCCC(=O)Nc1ccc(OCC(O)CNC(C)C)c(C(C)=O)c1 (stereo unspecified) [ACEBUTOLOL] | Marginally Active | 3.3 | >= 4 | Inactive | 2.6 | >= 4 | Marginally Active | 3.3 | >= 4 | Inactive | 0 | < 4 | 0 | 3 | Inactive | Marginally Active | 3.9 | >= 4 | –
10 | CN(C)c1nc(N(C)C)nc(N(C)C)n1 [ALTRETAMINE] | Inactive | 0 | < 4 | Inactive | 0 | < 4 | Inactive | 0 | < 4 | Inactive | 0 | < 4 | 0 | 0 | Inactive | Inactive | 18.3 | < 4 | –
11 | CO[C@@]1(NC(=O)CSCC#N)C(=O)N2C(C(=O)O)=C(CSc3nnnn3C)CS[C@@H]21 [CEFMETAZOLE] | Inactive | 0 | < 4 | Inactive | 0 | < 4 | Inactive | 25.5 | < 4 | Inactive | 0 | < 4 | 0 | 0 | Inactive | Inactive | 0.1 | < 4 | –
12 | CNC(=C[N+](=O)[O-])NCCSCc1ccc(CN(C)C)o1 [RANITIDINE] | Inactive | 1 | >= 4 | Inactive | 1.2 | >= 4 | Inactive | 0.3 | >= 4 | Inactive | 0 | < 4 | 0 | 0 | Inactive | Inactive | 1.1 | >= 4 | –
